Measured values reported in PMC11820896, “New Compounds with Enhanced Biological Activity Through the Strategic Introduction of Silylated Groups into Hydroxystearic Acids” (Molecules, 2025).

Assays:
[1] = tested on: human tumor cell lines (HT29, MCF-7, HeLa, U2OS, and J6); assay: Antiproliferative activity in the series of human tumor cell lines; assay type: cell-based; conditions: MTT; concentration range of 10–500 nM
Description: (§1) The human colorectal adenocarcinoma (Caco-2), human colorectal adenocarcinoma (HT29), normal human intestinal (I407), human cervical cancer (HeLa), human breast cancer (MCF7), human bone osteosarcoma (U2OS), and human acute T-cell leukemia (Jurkat J6) cell lines were purchased from American Type Culture Collection (ATCC, Manassas, VA, USA). Cells were cultured in RPMI 1640 medium (Labtek Eurobio, Milan, Italy), supplemented with 10% FCS (Euroclone, Milano, Italy) and 2 mM L-glutamine (Sigma-Aldrich, Milano, Italy), at 37 °C and in a 5% CO2 atmosphere. The compounds were dissolved in DMSO in a 30–40 mM stock solution. In cell treatments, the final DMSO concentration never exceeded 0.1%.
(§2) Cells were seeded in a 96-well culture plastic plate (Sarsted, Milan, Italy), at 5 × 10^4 cells/well and, after 24 h, were exposed to increasing concentrations of the different compounds (from 1 nM to 500 nM) dissolved in RPMI 1640 medium. An MTT assay was performed according to Micheletti et al..
(§3) The absorbance at 570 nm was measured using a multi-well plate reader (Tecan, Männedorf, Switzerland), and data were analyzed by Prism GraphPad 8 software and expressed as IC50 nM.

HT29 = assay: MTT assay, HT29 cells; assay type: cell-based, human; conditions: Homo sapiens, HT-29; MTT; means of four experiments; na = not active; read-out: In vitro cytotoxic activity (IC50), HT29
Description: as §1, §2, §3

U2OS = assay: MTT assay, U2OS cells; assay type: cell-based; conditions: Homo sapiens, means of four experiments, na = not active, read-out: In vitro cytotoxic activity (IC50), U2OS
Description: as §1, §2, §3

HeLa = assay: MTT assay, HeLa cells; assay type: cell-based; conditions: Homo sapiens, means of four experiments, na = not active, read-out: In vitro cytotoxic activity (IC50), HeLa
Description: as §1, §2, §3

J6 = assay: MTT assay, Jurkat J6 cells; assay type: cell-based; conditions: Homo sapiens, means of four experiments, na = not active, read-out: In vitro cytotoxic activity (IC50), J6
Description: as §1, §2, §3

MCF7 = assay: MTT assay, MCF7 cells; assay type: cell-based; conditions: Homo sapiens, means of four experiments, na = not active, read-out: In vitro cytotoxic activity (IC50), MCF7
Description: as §1, §2, §3

HT29 cells = tested on: HT29 cells; set-up: method as in PMID 14715257, PMID 22814230; conditions: cited from earlier work
[2] = tested on: histones H2/H3 and H4 of HT29 cells; set-up: method as in PMID 15716589, PMID 22814230; conditions: cited from earlier work
[3] = tested on: histone deacetylase HDAC1; set-up: method as in PMID 14715257, PMID 15716589, PMID 16702808, PMID 17234448, PMID 22814230; conditions: cited from earlier work

Structure (SMILES)	antitumor activity across all cell lines tested [1]	IC50 (HT29) [nM]	IC50 (U2OS) [nM]	IC50 (HeLa) [nM]	concentration inducing the same effect on the cell cycle (G0/G1 arrest) (HT29 cells) [µM]	also measured
CCCCCCCCC(O[Si](C)(C)C(C)(C)C)C(CCCCCCCC(=O)O)O[Si](C)(C)C(C)(C)C (racemic) [Compound 13, Rac-erythro-9,10-bis((tert-butyldimethylsilyl)oxy)octadecanoic Acid]	showed antitumor activity	25.3 ± 0.27	41.95 ± 0.29	131.8 ± 0.21		
CCCCCCCCC[C@H](CCCCCCCC(=O)OC)O[Si](C)(C)C(C)(C)C [Compound 3, Methyl (R)-9-((tert-butyldimethylsilyl)oxy)octadecanoate]	showed antitumor activity	84.76 ± 0.1	29.33 ± 0.23	133.7 ± 0.32		IC50 (J6): 151.6 ± 0.31 nM; IC50 (MCF7): 134 ± 0.27 nM
CCCCCCCCC(O[Si](C)(C)C(C)(C)C)C(CCCCCCCC(=O)OC)O[Si](C)(C)C(C)(C)C (racemic) [Compound 10, Rac-erythro-methyl 9,10-bis((tert-butyldimethylsilyl)oxy)octadecanoate]	no activity					
CCCCCCCCC[C@@H](O)CCCCCCCC(=O)O [(R)-9-HSA, (R)-9-hydroxystearic acid]					50	histone acetylation (free acid) [2]: induces hyperacetylation of histone H4
CCCCCCCCCC(O)CCCCCCCC(=O)O (stereo not drawn) [Compound 9-HSA, 9-hydroxystearic acid]					100	inhibition of histone deacetylase HDAC1 [3]: selectively inhibits
